Assay [1] has as its target VEGFR2 (Homo sapiens (Human), UniProt P35968). Description: Kinase inhibition assay (Caliper, FAM-labeled peptide substrate). In kind it is biochemical. The method, then:
(§1) 2.5 times of the kinase (VEGFR2 or EGFR or FYN) buffer solution was added to the compound diluted in equal concentration in the 384-well plate and incubated at 22-27° C. for 10 minutes, then 2.5 times of the FAM-labeled peptide substrate and ATP buffer solution were added therein and incubated at 28° C., and then the stop buffer solution was added to stop the reaction. The data was read by Caliper and the following formula was used to calculate the IC50 inhibition: Percent inhibition=(max-conversion)/(max-min)*100. Staurosporine was used as a control. In kinase inhibition assays, some of the compounds of the present invention are effective in inhibiting VEGFR2/FYN/EGFR, so they have the potential for treating or preventing cancer or central nervous system diseases (Table 1).

For assay [2], the target named is FYN (Homo sapiens (Human), UniProt P06241). The assay is described as above. In kind it is biochemical. How it is done:
as §1

In general, IC50 refers to the point on the concentration scale where inhibition reaches its midpoint. A higher IC50 goes with a need for much substance.

Each structure is given as a SMILES string.

FYN, sequence (P06241 whole entry): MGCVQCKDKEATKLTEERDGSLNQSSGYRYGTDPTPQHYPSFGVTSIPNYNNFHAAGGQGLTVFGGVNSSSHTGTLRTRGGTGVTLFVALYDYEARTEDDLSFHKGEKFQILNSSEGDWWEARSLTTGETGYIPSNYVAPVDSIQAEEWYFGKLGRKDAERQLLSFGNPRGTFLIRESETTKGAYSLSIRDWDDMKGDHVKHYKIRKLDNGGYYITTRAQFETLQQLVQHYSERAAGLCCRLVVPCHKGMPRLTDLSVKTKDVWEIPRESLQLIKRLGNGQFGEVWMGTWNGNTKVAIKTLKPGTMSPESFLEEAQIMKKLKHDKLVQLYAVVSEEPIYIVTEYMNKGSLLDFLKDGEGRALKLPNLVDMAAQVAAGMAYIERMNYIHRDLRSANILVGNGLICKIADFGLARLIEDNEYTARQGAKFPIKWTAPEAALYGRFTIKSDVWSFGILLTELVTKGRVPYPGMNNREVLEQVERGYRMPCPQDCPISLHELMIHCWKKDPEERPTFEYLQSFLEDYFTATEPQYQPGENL
VEGFR2, sequence (P35968 20-1356): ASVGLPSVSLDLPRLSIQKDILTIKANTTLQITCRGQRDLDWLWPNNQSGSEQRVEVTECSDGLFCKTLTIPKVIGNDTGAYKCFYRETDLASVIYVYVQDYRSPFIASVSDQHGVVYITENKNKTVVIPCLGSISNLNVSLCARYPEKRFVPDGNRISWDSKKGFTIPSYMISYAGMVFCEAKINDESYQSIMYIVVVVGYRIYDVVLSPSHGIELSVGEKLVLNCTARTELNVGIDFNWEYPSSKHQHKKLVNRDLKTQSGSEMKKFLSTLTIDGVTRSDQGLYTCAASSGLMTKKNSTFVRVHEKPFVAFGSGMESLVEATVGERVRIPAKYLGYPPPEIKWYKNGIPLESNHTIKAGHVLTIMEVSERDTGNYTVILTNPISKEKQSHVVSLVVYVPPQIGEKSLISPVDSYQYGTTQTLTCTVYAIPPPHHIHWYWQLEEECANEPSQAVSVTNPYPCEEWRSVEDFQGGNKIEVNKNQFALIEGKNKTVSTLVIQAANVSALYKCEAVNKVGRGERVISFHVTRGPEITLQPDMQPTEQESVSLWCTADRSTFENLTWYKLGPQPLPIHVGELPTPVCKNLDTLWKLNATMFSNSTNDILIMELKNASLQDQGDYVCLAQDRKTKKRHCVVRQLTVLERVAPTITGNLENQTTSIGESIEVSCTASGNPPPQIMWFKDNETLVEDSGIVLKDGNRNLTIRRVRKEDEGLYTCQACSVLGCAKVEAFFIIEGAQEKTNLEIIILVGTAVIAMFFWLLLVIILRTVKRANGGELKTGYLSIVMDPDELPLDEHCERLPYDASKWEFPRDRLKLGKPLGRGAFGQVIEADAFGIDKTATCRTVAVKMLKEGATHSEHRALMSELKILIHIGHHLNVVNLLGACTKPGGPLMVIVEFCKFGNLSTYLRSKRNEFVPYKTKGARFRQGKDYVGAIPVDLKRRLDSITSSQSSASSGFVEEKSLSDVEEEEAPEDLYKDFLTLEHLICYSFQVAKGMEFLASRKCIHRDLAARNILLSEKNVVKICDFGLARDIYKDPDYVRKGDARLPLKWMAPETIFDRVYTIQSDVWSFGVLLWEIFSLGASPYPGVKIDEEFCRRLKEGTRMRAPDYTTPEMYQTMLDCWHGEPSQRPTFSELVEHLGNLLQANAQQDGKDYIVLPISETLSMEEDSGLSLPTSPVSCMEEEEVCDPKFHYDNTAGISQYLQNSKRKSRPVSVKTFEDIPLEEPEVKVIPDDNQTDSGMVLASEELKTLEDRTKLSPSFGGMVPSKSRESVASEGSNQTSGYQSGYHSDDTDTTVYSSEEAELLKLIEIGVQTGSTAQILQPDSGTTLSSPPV

Regarding `COc1cc(O[C@H]2CCN(C)CC2(F)F)c2c(Oc3cc(F)c4[nH]c(C)cc4c3F)ncnc2c1` [Compound 35, (S)-5-((3,3-difluoro-1-methylpiperidin-4-yl)oxy)-4-((4,7-difluoro-2-methyl-1H-indol-5-yl)oxy)-7-methoxyquinazoline], the IC50 in assay [1] is < 10 nM. In the case of `COc1cc(OC2CCN(C)CC2(F)F)c2c(Oc3ccc4[nH]c(C)cc4c3F)ncnc2c1` (racemic) [Compound 2, (R/S)-5-((3,3-difluoro-1-methylpiperidin-4-yl)oxy)-4-((4-fluoro-2-methyl-1H-indole-5-yl)oxy)-7-deuterated methoxyquinazoline], the IC50 in assay [1] is < 10 nM.

For `COc1cc(O[C@@H]2CCN(C)CC2(F)F)c2c(Oc3cc(F)c4[nH]c(C)cc4c3F)ncnc2c1` [Compound 19, (R)-5-((3,3-difluoro-1-methylpiperidin-4-yl)oxy)-4-((4,7-difluoro-2-methyl-1H-indol-5-yl)oxy)-7-methoxyquinazoline], the half-inhibitory concentration (IC50) in assay [1] is < 10 nM.

`COc1cc(O[C@@H]2CCN(C)CC2(F)F)c2c(Oc3ccc4[nH]c(C)cc4c3F)ncnc2c1` [Compound 18, (R)-5-((3,3-difluoro-1-methylpiperidin-4-yl)oxy)-4-((4-fluoro-2-methyl-1H-indole-5-yl)oxy)-7-deuterated methoxyquinazoline]: the IC50 in assay [1] was < 10 nM. As for `COc1cc(O[C@H]2CCN(C)CC2(F)F)c2c(Oc3ccc4[nH]c(C)cc4c3F)ncnc2c1` [Compound 34, (S)-5-((3,3-difluoro-1-methylpiperidin-4-yl)oxy)-4-((4-fluoro-2-methyl-1H-indole-5-yl)oxy)-7-deuterated methoxyquinazoline], in assay [1], the IC50 was < 10 nM. Same read-out and setting: the result for `COc1cc(O[C@H]2CCN(C)CC2(F)F)c2c(Oc3ccc4[nH]c(C)cc4c3F)ncnc2c1` [Compound 33, (S)-5-((3,3-difluoro-1-methylpiperidin-4-yl)oxy)-4-((4-fluoro-2-methyl-1H-indole-5-yl)oxy)-7-methoxyquinazoline] reads < 10 nM. The same measure, in the same setting: the result for `COc1cc(O[C@@H]2CCN(C)CC2(F)F)c2c(Oc3ccc4[nH]c(C)cc4c3F)ncnc2c1` [Compound 17, (R)-5-((3,3-difluoro-1-methylpiperidin-4-yl)oxy)-4-((4-fluoro-2-methyl-1H-indole-5-yl)oxy)-7-methoxyquinazoline] reads < 10 nM. Take `CCOc1cc(O[C@@H]2CCN(C)CC2(F)F)c2c(Nc3c(Cl)ccc4c3OCO4)ncnc2c1` [Compound 25, (R)—N-(5-chlorobenzo[d][1,3]dioxolcyclopenten-4-yl)-5-((3,3-difluoro-1-methylpiperidin-4-yl)oxy)-7-ethoxyquinazolin-4-amine]: in assay [2], the IC50 is < 100 nM.

`CCN1CCC(Oc2cc(OC)cc3ncnc(Nc4c(F)ccc5c4OCO5)c23)C(F)(F)C1` (racemic) [Compound 10, (R/S)-5-((1-ethyl-3,3-difluoropiperidin-4-yl)oxy)-N-(5-fluorobenzo[d] [1,3]dioxolcyclopenten-4-yl)-7-methoxyquinazolin-4-amine]: the IC50 in assay [2] is < 100 nM. On the same count and under the same terms, next, `COc1cc(O[C@@H]2CCN(C)CC2(F)F)c2c(Nc3c(F)ccc4c3OCO4)ncnc2c1` [Compound 21, (R)—N-(5-fluorobenzo[d][1,3]dioxolcyclopenten-4-yl)-5-((3,3-difluoro-1-methylpiperidin-4-yl)oxy)-7-methoxyquinazolin-4-amine]: < 100 nM; `COc1cc(OC2CCN(C)CC2(F)F)c2c(Nc3c(Cl)ccc4c3OCO4)ncnc2c1` (racemic) [Compound 12, (R/S)—N-(5-chlorobenzo[d] [1,3]dioxolcyclopenten-4-yl)-5-((3,3-difluoro-1-methylpiperidin-4-yl)oxy)-7-deuterated methoxyquinazolin-4-amine]: < 100 nM; `COc1cc(O[C@@H]2CCN(C)CC2(F)F)c2c(Nc3c(Cl)ccc4c3OCO4)ncnc2c1` [Compound 20, (R)—N-(5-chlorobenzo[d][1,3]dioxolcyclopenten-4-yl)-5-((3,3-difluoro-1-methylpiperidin-4-yl)oxy)-7-methoxyquinazolin-4-amine]: < 100 nM.

These data come from patent US11713306B2, “5-substituted difluoropiperidine compounds with blood-brain barrier penetrable capability” (Wayshine Biopharm Holding Limited, priority 2018, dated 2023).
